# Legend:
# PsAOMT = test system: T1, PsAOMT; test: HPLC of methylated product; format: biochemical, Paeonia suffruticosa; details: 200 μM SAM, 1.0 mM MgCl2, 14 mM β-mercaptoethanol, 100 mM Tris/HCl pH 7.5, 35 °C; MBP fusion; read-out: PsAOMT / K m
# T1 construct: gene AOMT; dimer in solution; Leu-87; differs from PtAOMT at positions 13 (E), 85 (A), 87 (L), 205 (R)
# From the text: HPLC of methylated product on PsAOMT
# PtAOMT = test system: T2, PtAOMT; test: HPLC of methylated product; format: biochemical, Paeonia tenuifolia; details: 200 μM SAM, 1.0 mM MgCl2, 14 mM β-mercaptoethanol, 100 mM Tris/HCl pH 7.5, 35 °C; MBP fusion
# T2 construct: gene AOMT; dimer in solution; Arg-87; Gly-13, Thr-85, Thr-205
# From the text: HPLC of methylated product on PtAOMT | K m of PtAOMT-R87L for Cy3G was slightly lower than its K m for Cy3G5G
structure (smiles),measurement,setting,value
"C[C@@H]1O[C@@H](OC[C@H]2O[C@@H](Oc3c(-c4ccc(O)c(O)c4)oc4cc(O)cc(O)c4c3=O)[C@H](O)[C@@H](O)[C@@H]2O)[C@H](O)[C@H](O)[C@H]1O [Qu3R, Quercetin 3-O-rutinoside]",Km,PsAOMT,12.3 µM
"O=c1cc(-c2ccc(O)c(O)c2)oc2cc(O[C@@H]3O[C@H](CO)[C@@H](O)[C@H](O)[C@H]3O)cc(O)c12 [Lu7G, Luteolin 7-O-glucoside]",Km,PsAOMT,146 µM
"OC[C@H]1O[C@@H](Oc2cc3c(O)cc(O)cc3[o+]c2-c2ccc(O)c(O)c2)[C@H](O)[C@@H](O)[C@@H]1O [Cy3G, Cyanidin 3-O-glucoside]",Km,PsAOMT,1.76 µM
same,Km,PtAOMT,3.53 ± 0.31 µM
O=c1c(O)c(-c2ccc(O)c(O)c2)oc2cc(O)cc(O)c12 [Quercetin],Km,PsAOMT,4.33 µM
"OC[C@H]1O[C@@H](Oc2cc3c(O)cc(O)cc3[o+]c2-c2cc(O)c(O)c(O)c2)[C@H](O)[C@@H](O)[C@@H]1O [Dp3G, Delphinidin 3-O-glucoside]",Km,PsAOMT,4.11 µM
"OC[C@H]1O[C@@H](Oc2cc3c(O[C@@H]4O[C@H](CO)[C@@H](O)[C@H](O)[C@H]4O)cc(O)cc3[o+]c2-c2ccc(O)c(O)c2)[C@H](O)[C@@H](O)[C@@H]1O [Cy3G5G, Cyanidin 3,5-di-O-glucoside]",Km,PsAOMT,1.06 µM
same,Km,PtAOMT,8.51 ± 1.39 µM

# From publication PMC4623676, “Methylation mediated by an anthocyanin, O-methyltransferase, is involved in purple flower coloration in Paeonia” (Journal of Experimental Botany, 2015)
